Where a name gives a salt, the structure may show the parent alone.
Tests used:
ΔF508-CFTR = ΔF508-CFTR (Homo sapiens, UniProt P13569, DEL508-508); assay type: cell-based; set-up: which was then ligated into full length pNUT-CFTR linearized using Hpa1 and Pml1; expressed in transfected cells; settings: Prestwick library, initial corrector assay; for hit in screen (class letter): BHK cells; for hit in screen (score): standard deviations above untreated controls
Experimental: BHK cells expressing 3HA-tagged ΔF508-CFTR between passages 5-8 were seeded in 96-well plates (Corning half area, black-sided, clear bottom) at 15,000 cells per well and incubated with culture medium for 24 h at 37° C. Each well was then treated with a different test compound (80 compounds per plate) for 24 h at 20 μM final concentration. The remaining 16 wells on each plate were used for control conditions. […] Cells were fixed in a 4% paraformaldehyde solution, washed with PBS, and blocked with PBS containing 5% fetal bovine serum (FBS) for 1 hat 4° C.
Blocking solution was replaced with 15 μl of primary antibody solution containing 1% FBS and mouse monoclonal anti-HA antibody (1:150 dilution, Sigma) in PBS. The plates were sealed and left at 4° C. overnight. After three washes with 100 μl PBS, cells were incubated for 1 h with 15 μl of secondary antibody solution containing 1% FBS and anti-mouse IgG conjugated with FITC (1:100 dilution, Sigma) in PBS. Cells were again washed three times with 100 μl of PBS and analyzed in a plate reader (Analyst™ HT96.384, Biosystems; 488 nm excitation/510 nm emission). […] The mean fluorescence of four untreated wells was used as the background signal when calculating deviations of the 80 compound-treated wells. Hits were then cherry-picked into reservoir plates and re-tested in duplicate using the same assay.
BHK cells expressing ΔF508-CFTR were incubated with test compounds (20 μM) for 24 hours at 37° C. in a 96 well format. Plasma membrane expression of ΔF508-CFTR was then assayed by immunofluorescence using a primary antibody directed against the inserted 3HA tag and a secondary antibody conjugated with a fluorophore (FITC). […] The positive compounds were selected and retested in duplicate to obtain an N of 3. At the re-screening stage, the intrinsic fluorescence of each potential hit was also measured and the fluorescent ones were not considered further.
Screening was performed using BHK cells that stably express F508-CFTR bearing three tandem haemagglutinin-epitope tags (3HA) and linker sequences in the fourth extracellular loop after amino acid 901 (Howard et al., 1995; Carlile et al., 2007; Robert et al., 2008). […] Screening was performed using the Prestwick Chemical Library of 1120 high-purity compounds.

F508del CFTR = molecular target: T1, F508del CFTR (Homo sapiens, UniProt P13569, DEL508-508); test: YFP fluorescence quenching functional assay (iodide influx), HEK293 cells with F508del CFTR and halide sensitive YFP; assay type: cell-based; settings: 10 μM, 24 h; for % YFP quench / remaining activity at 10 µM: nc = 100% pc = 69.2; for remaining activity at 10 µM: HEK293, read-out: % YFP quench
T1 construct: expressed in transfected cells; host or cells: HEK293 Griptite cells stably expressing F508del CFTR, transiently transfected with halide-sensitive eYFP
Experimental: In addition to the MDS compounds, the 1120 Prestwick Library compounds were screened. (See FIGS. 7 to 12.) Of the compounds, one qualified as a “strong” hit, 3 as “medium” hits and 57 as “weak” hits. The Z score for the assay was 0.62. The top 50 hits were further tested in a counter screen in which the halide sensitive fluorescent compound (YFP) was expressed inside cells (Table 2). After incubation with the test compounds the ability of the cells to uptake iodide was measure by decreasing YFP fluorescence. In these cells this can only occur if functional CFTR is present at the cell surface (FIG. 7). The hits were also tested for the appearance of the Band C form of CFTR. […] The functionality of the compounds was further studied by the use of Iodide efflux assays for each compound in both BHK and the more physiologically relevant CFBE cells. […] FIG. 10 is a table of results for the 15 hit compounds which summarizes many experiments. […] The results for the best 15 compounds from the Prestwick Library, or “Prestwick 15”, are shown FIGS. 8, 9 and 10.
Strongly adhesive Human […] Kidney cells stably expressing both the human macrophage scavenger receptor (HEK293 Griptite, Invitrogen) and F508del CFTR were plated in 96-well plates and transiently transfected with pcDNA3 plasmid encoding a halide sensitive variant of eYFP. After 24-48 h later cells were exposed to 10 μM test compound in triplicate and incubated for an additional 24 h. Cells were stimulated for 20 minutes with a in a buffer containing 25 μM forskolin, 45 μM IBMX and 50 μM genistein final concentration. The high content screening assay was performed using a Cellomics platform. Iodide was added robotically to a final concentration of 50 mM and the resulting decrease in fluorescence was measured. Images were taken at time 0 and stored for subsequent use when calculating a mask so that only those cells that express YFP at time 0 are measured. The quenching was detected in 15 images taken over the course of an experiment lasting 40 seconds. Each test compound was compared to the following two controls: a negative control without drugs to assess photobleaching that may occur when the same field of view is repeatedly imaged, and a positive control with cells treated with a known potentiator. Results were generated from 150-300 cells per well.

ΔF508-CFTR, sequence (P13569 with tags, fused parts or gaps DEL508-508): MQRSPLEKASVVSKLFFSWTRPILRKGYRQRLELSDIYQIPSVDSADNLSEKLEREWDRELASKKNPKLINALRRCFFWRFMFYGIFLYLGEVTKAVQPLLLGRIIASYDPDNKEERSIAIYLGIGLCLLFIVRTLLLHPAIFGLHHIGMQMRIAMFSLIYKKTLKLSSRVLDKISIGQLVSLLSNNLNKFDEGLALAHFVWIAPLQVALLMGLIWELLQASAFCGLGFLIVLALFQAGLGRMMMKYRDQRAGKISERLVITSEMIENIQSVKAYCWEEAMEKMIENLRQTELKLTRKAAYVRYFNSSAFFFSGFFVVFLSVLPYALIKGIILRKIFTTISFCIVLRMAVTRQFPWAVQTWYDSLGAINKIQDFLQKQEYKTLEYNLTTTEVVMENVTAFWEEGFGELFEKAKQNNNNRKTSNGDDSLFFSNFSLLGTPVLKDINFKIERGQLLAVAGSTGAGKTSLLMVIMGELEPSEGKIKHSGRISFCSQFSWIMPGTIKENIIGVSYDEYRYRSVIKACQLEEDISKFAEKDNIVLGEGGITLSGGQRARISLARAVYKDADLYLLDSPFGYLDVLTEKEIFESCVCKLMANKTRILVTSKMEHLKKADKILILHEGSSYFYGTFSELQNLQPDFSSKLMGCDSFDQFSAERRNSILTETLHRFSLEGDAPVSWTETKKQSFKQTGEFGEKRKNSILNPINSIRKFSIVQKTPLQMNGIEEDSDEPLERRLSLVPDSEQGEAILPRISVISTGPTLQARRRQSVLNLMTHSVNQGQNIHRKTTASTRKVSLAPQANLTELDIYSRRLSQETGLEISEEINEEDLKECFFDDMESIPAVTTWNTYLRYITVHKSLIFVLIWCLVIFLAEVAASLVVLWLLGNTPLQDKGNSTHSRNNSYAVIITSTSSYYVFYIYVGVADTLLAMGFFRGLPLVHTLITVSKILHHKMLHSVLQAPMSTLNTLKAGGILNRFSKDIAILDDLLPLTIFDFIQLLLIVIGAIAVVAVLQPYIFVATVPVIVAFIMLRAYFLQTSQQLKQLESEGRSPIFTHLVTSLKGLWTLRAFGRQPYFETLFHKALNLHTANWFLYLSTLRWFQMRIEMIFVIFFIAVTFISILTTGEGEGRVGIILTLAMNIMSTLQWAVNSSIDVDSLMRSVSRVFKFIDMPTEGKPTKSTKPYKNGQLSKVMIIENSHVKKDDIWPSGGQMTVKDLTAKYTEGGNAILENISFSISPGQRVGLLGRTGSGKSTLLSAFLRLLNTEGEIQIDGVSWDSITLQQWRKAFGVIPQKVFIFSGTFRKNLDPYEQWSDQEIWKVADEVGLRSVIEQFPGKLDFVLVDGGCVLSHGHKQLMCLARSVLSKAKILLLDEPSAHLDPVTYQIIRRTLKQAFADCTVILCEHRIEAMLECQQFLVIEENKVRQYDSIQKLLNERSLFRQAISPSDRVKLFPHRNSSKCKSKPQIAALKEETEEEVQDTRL
T1 sequence (P13569 with tags, fused parts or gaps DEL508-508): as above

Row | Compound | hit in screen (class letter) (ΔF508-CFTR) | hit in screen (score) (ΔF508-CFTR) | % YFP quench (F508del CFTR) [%] | remaining activity at 10 µM (F508del CFTR) [%] | functional correction in YFP quenching assay (F508del CFTR)
1 | C[N+](C)(C)CCCCCC[N+](C)(C)C.O.O.[Br-].[Br-] [Hexamethonium dibromide dihydrate] | W (Medium and weak hits were defined as compounds giving a cell fluorescence signal that was between 2 and 3 or 1 and 2 standard deviations, respectively, above untreated control wells) | 1.1 | 98 |  | 
2 | Oubinidine | W (Medium and weak hits were defined as compounds giving a cell fluorescence signal that was between 2 and 3 or 1 and 2 standard deviations, respectively, above untreated control wells) | 1.2 | 104 |  | 
3 | C#CCN(C)CCCOc1ccc(Cl)cc1Cl [Clorgyline hydrochloride] | W (Medium and weak hits were defined as compounds giving a cell fluorescence signal that was between 2 and 3 or 1 and 2 standard deviations, respectively, above untreated control wells) | 1.0 |  | 77 | 
4 | Cl.OC(CCN1CCCC1)(c1ccccc1)C1CCCCC1 (stereo not shown) [Procycildine hydrochloride] | W (Medium and weak hits were defined as compounds giving a cell fluorescence signal that was between 2 and 3 or 1 and 2 standard deviations, respectively, above untreated control wells) | 1.1 | 92 |  | 
5 | Cytisine (−) | M (Medium and weak hits were defined as compounds giving a cell fluorescence signal that was between 2 and 3 or 1 and 2 standard deviations, respectively, above untreated control wells) | 2.0 | 97 |  | 
6 | Cc1oncc1C(=O)Nc1ccc(C(F)(F)F)cc1 [Leflunomide] | W (Medium and weak hits were defined as compounds giving a cell fluorescence signal that was between 2 and 3 or 1 and 2 standard deviations, respectively, above untreated control wells) | 1.0 |  | 107 | 
7 | Terbutaline hemisulfate | W (Medium and weak hits were defined as compounds giving a cell fluorescence signal that was between 2 and 3 or 1 and 2 standard deviations, respectively, above untreated control wells) | 1.3 | 100 |  | 
8 | NC(=O)N1c2ccccc2C=Cc2ccccc21 [Carbamazenine] | W (Medium and weak hits were defined as compounds giving a cell fluorescence signal that was between 2 and 3 or 1 and 2 standard deviations, respectively, above untreated control wells) | 1.1 | 86 |  | 
9 | c1ccc2[nH]c(-c3cscn3)nc2c1 [Tiabendazole] | W (Medium and weak hits were defined as compounds giving a cell fluorescence signal that was between 2 and 3 or 1 and 2 standard deviations, respectively, above untreated control wells) | 1.0 |  | 907 | 
10 | CCn1cc(C(=O)O)c(=O)c2cc(F)c(N3CCNCC3)nc21 [Enoxacin] | W (Medium and weak hits were defined as compounds giving a cell fluorescence signal that was between 2 and 3 or 1 and 2 standard deviations, respectively, above untreated control wells) | 1.0 |  | 84 | 
11 | CC[C@@H](CO)NC(=O)[C@@H]1C=C2c3cccc4[nH]cc(c34)C[C@H]2N(C)C1 [Methylergometrine maleate] | W (Medium and weak hits were defined as compounds giving a cell fluorescence signal that was between 2 and 3 or 1 and 2 standard deviations, respectively, above untreated control wells) | 1.1 |  | 94 | 
12 | Cc1scc2c1N(C(=O)CN1CCN(C)CC1)c1ccccc1NC2=O [Telenzepine dihydrochloride] | W (Medium and weak hits were defined as compounds giving a cell fluorescence signal that was between 2 and 3 or 1 and 2 standard deviations, respectively, above untreated control wells) | 1.3 |  | 85 | 
13 | CN(C)CCOC(=O)COc1ccc(Cl)cc1.Cl [Meciofenoxate hydrochloride] | W (Medium and weak hits were defined as compounds giving a cell fluorescence signal that was between 2 and 3 or 1 and 2 standard deviations, respectively, above untreated control wells) | 1.1 | 877 |  | 
14 | Cyanocobalamin | W (Medium and weak hits were defined as compounds giving a cell fluorescence signal that was between 2 and 3 or 1 and 2 standard deviations, respectively, above untreated control wells) | 1.1 | 100 |  | not functional
15 | CC(C(=O)O)c1ccc(-c2ccccc2)c(F)c1 (stereo not shown) [Flubiprofen] | W (Medium and weak hits were defined as compounds giving a cell fluorescence signal that was between 2 and 3 or 1 and 2 standard deviations, respectively, above untreated control wells) | 1.0 |  | 98 | 
16 | CCN(CC)CC#CCOC(=O)C(O)(c1ccccc1)C1CCCCC1 (stereo not shown) [Oxybutynin chloride] | W (Medium and weak hits were defined as compounds giving a cell fluorescence signal that was between 2 and 3 or 1 and 2 standard deviations, respectively, above untreated control wells) | 1.2 |  | 83 | 
17 | CC(C)(C)NCC(O)c1ccc(O)c(CO)c1 (stereo not shown) [Salbutamol] | W (Medium and weak hits were defined as compounds giving a cell fluorescence signal that was between 2 and 3 or 1 and 2 standard deviations, respectively, above untreated control wells) | 1.0 |  | 97 | 
18 | CC(C)(C(=O)c1cccnc1)c1cccnc1 [Metyrapone] | W (Medium and weak hits were defined as compounds giving a cell fluorescence signal that was between 2 and 3 or 1 and 2 standard deviations, respectively, above untreated control wells) | 1.4 |  | 98 | 
19 | CCN(CC)C(=O)N1CCN(C)CC1 [Diethylcarbamazine citrate] | W (Medium and weak hits were defined as compounds giving a cell fluorescence signal that was between 2 and 3 or 1 and 2 standard deviations, respectively, above untreated control wells) | 1.2 |  | 907 | 
20 | CCCCOc1ccc(OCCCN2CCOCC2)cc1 [Pramoxine hydrochloride] | W (Medium and weak hits were defined as compounds giving a cell fluorescence signal that was between 2 and 3 or 1 and 2 standard deviations, respectively, above untreated control wells) | 1.2 |  | 89 | 

Source: patent US20110009351A1, “SCREENING ASSAY TO IDENTIFY CORRECTORS OF PROTEIN TRAFFICKING DEFECTS” (Traffick Therepeutics Inc., priority 2007, published 2011)
